Measurements reported in PMC6480460, “Derivatives of the β-Crinane Amaryllidaceae Alkaloid Haemanthamine as Multi-Target Directed Ligands for Alzheimer’s Disease” (Molecules, 2019).

Target: hAChE (Homo sapiens, UniProt P22303)
Experiment: biochemical
Format: biochemical
Settings: mean ± SEM of three independent measurements, each in triplicate
Procedure: (§1) The hAChE and hBuChE activities were determined using a modified method of Ellman with acetylthiocholine iodide (ATChI) and butyrylthiocholine iodide (BuTChI) as substrates, respectively.

Sequence of hAChE (P22303 32-614): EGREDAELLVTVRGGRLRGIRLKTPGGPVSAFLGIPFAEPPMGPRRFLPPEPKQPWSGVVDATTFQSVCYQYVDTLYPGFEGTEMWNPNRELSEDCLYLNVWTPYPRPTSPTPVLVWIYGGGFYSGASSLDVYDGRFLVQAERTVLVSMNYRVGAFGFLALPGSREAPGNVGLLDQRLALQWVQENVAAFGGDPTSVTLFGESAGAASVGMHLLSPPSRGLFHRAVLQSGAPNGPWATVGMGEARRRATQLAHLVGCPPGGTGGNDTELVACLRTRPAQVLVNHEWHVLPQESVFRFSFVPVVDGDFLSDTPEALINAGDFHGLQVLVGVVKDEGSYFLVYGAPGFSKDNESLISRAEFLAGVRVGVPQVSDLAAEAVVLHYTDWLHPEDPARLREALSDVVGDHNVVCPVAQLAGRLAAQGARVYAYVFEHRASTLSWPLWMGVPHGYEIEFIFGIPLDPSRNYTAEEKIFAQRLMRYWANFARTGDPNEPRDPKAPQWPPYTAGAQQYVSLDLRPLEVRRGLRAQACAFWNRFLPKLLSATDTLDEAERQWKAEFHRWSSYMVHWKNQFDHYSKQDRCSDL

SMILES	IC50 [µM]
COC1C=CC23c4cc5c(cc4CN(CC2OC(=O)c2ccccc2)C3C1)OCO5 (stereo not drawn) [Compound 1g, 11-O-Benzoylhaemanthamine]	294 ± 25
CCCC(=O)OC1CN2Cc3cc4c(cc3C13C=CC(OC)CC23)OCO4 (stereo not drawn) [Compound 1f, 11-O-Butanoylhaemanthamine]	> 500
COC1C=CC23c4cc5c(cc4CN(CC2OC(=O)c2cccc(Br)c2)C3C1)OCO5 (stereo not drawn) [Compound 1i, 11-O-(3-Bromobenzoyl)haemanthamine]	112 ± 21

Same assay, conditions: selectivity index, ratio hBuChE IC50/hAChE IC50

SMILES	SI for hAChE
COC1C=CC23c4cc5c(cc4CN(CC2OC(=O)c2ccccc2)C3C1)OCO5 (stereo not drawn) [Compound 1g, 11-O-Benzoylhaemanthamine]	0.02
CCCC(=O)OC1CN2Cc3cc4c(cc3C13C=CC(OC)CC23)OCO4 (stereo not drawn) [Compound 1f, 11-O-Butanoylhaemanthamine]	< 0.3
COC1C=CC23c4cc5c(cc4CN(CC2OC(=O)c2cccc(Br)c2)C3C1)OCO5 (stereo not drawn) [Compound 1i, 11-O-(3-Bromobenzoyl)haemanthamine]	1.1

Target: hBuChE (Homo sapiens, UniProt P06276)
Experiment: biochemical
Format: biochemical
Settings: mean ± SEM of three independent measurements, each in triplicate; read-out: hBuChE IC50
Procedure: as §1

Sequence of hBuChE (P06276 29-602): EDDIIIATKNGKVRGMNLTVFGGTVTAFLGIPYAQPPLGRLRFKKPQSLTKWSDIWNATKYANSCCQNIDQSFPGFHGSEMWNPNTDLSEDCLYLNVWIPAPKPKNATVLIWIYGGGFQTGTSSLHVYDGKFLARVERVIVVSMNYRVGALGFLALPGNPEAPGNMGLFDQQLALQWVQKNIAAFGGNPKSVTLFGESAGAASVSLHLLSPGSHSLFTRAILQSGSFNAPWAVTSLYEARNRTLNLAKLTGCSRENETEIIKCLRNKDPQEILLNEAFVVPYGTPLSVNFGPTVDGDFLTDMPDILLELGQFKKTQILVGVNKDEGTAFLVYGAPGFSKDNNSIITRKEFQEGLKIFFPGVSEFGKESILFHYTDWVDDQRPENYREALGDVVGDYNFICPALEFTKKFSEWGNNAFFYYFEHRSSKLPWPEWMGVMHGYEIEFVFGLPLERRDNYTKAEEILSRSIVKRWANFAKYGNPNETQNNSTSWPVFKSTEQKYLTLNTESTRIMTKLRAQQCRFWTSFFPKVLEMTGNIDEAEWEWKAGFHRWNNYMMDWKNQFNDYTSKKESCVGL

SMILES	IC50 [µM]
COC1C=CC23c4cc5c(cc4CN(CC2OC(=O)c2ccccc2)C3C1)OCO5 (stereo not drawn) [Compound 1g, 11-O-Benzoylhaemanthamine]	5.8 ± 0.3
CCCC(=O)OC1CN2Cc3cc4c(cc3C13C=CC(OC)CC23)OCO4 (stereo not drawn) [Compound 1f, 11-O-Butanoylhaemanthamine]	140 ± 21
COC1C=CC23c4cc5c(cc4CN(CC2OC(=O)c2cccc(Br)c2)C3C1)OCO5 (stereo not drawn) [Compound 1i, 11-O-(3-Bromobenzoyl)haemanthamine]	129 ± 25

Target: GSK-3β (Homo sapiens, UniProt P49841)
Experiment: GSK-3β assay (Kinase-Glo Kit)
Format: biochemical
Settings: tested at 10 µM compound concentration; read-out: GSK-3β (% inhib.)
Procedure: The GSK-3β assay was performed by using Kinase-Glo Kit obtained from Promega (Promega Biotech Iberica, SL, Madrid, Spain) as described previously.

Sequence of GSK-3β (P49841 whole entry): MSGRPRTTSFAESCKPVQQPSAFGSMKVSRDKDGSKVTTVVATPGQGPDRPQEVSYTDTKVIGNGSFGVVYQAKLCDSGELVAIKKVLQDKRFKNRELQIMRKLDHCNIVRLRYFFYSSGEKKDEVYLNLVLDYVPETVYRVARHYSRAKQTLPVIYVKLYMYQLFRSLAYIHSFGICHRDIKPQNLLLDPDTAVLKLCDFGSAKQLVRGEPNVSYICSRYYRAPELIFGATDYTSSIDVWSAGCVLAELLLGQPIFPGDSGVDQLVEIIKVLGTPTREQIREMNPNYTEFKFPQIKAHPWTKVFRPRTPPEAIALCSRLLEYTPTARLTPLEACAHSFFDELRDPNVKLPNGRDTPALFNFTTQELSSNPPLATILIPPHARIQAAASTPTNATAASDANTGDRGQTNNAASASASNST

SMILES	inhibition at 10 µM [%]
COC1C=CC23c4cc5c(cc4CN(CC2OC(=O)c2ccccc2)C3C1)OCO5 (stereo not drawn) [Compound 1g, 11-O-Benzoylhaemanthamine]	11 ± 2

Tested on: not listed separately
Experiment: in vitro
Settings: class from Pe
Procedure: The PAMPA assay was performed as previously described.

SMILES	PAMPA-BBB prediction of penetration in the CNS
COC1C=CC23c4cc5c(cc4CN(CC2OC(=O)c2ccccc2)C3C1)OCO5 (stereo not drawn) [Compound 1g, 11-O-Benzoylhaemanthamine]	CNS+ (CNS(+): high BBB permeation predicted with Pe (10^−6 cm.s^−1) > 4.0)

Same assay, conditions: class from Pe; listed as 18g

SMILES	PAMPA-BBB prediction of penetration in the CNS
COC1C=CC23c4cc5c(cc4CN(CC2OC(=O)c2ccccc2)C3C1)OCO5 (stereo not drawn) [Compound 1g, 11-O-Benzoylhaemanthamine]	CNS +

Tested on: Jurkat (acute T cell leukemia)
Experiment: WST-1 cytotoxicity assay, Jurkat
Format: cell-based
Settings: Homo sapiens, c = 10 μM, 48 h, percent of proliferation of untreated control cells
Description: (§2) Selected human tumor and non-tumor cell lines {Jurkat (acute T cell leukemia), MOLT-4 (acute lymphoblastic leukemia), A549 (lung carcinoma), HT-29 (colorectal adenocarcinoma), PANC-1 (pancreas epithelioid carcinoma), A2780 (ovarian carcinoma), HeLa (cervix adenocarcinoma), MCF-7 (breast adenocarcinoma), SAOS-2 (osteosarcoma) and MRC-5 (normal lung fibroblasts)} were purchased from either ATCC (Manassas, VA, USA) or Sigma-Aldrich (St. Louis, MO, USA) and cultured according to the provider’s culture method guidelines. […] Cells in the maximum range of either 10 passages for primary cell line (MRC-5), or in the maximum range of 20 passages for cancer cell lines (Jurkat, MOLT-4, A549, HT-29, PANC-1, A2780, HeLa, MCF-7 and SAOS-2) and in an exponential growth phase were used for this study.
(§3) The WST-1 (Roche, Mannheim, Germany) reagent was used to determine the cytostatic effect of the test compounds. WST-1 is designed for the spectrophotometric quantification of cell proliferation, growth, viability and chemosensitivity in cell populations using a 96-well-plate format (Sigma, St. Louis, MO, USA). The principle of WST-1 is based on photometric detection of the reduction of tetrazolium salt to a colored formazan product. The cells were seeded at a previously established optimal density (30,000 Jurkat, 25,000 MOLT-4, 500 A549, 1500 HT-29, 2000 PANC-1, 5000 A2780, 500 HeLa, 1500 MCF-7, 2000 SAOS-2 and 2000 MRC-5 cells/well) in 100 µL of culture medium, and adherent cells were allowed to reattach overnight. Thereafter, the cells were treated with 100 µL of either corresponding alkaloids or doxorubicin stock solutions to obtain the desired concentrations and incubated in 5% CO2 at 37 °C. WST-1 reagent diluted 4-fold with PBS (50 µL) was added 48 h after treatment. Absorbance was measured after 3 h incubation with WST-1 at 440 nm. The measurements were performed in a Tecan Infinite M200 spectrometer (Tecan Group, Männedorf, Switzerland). All experiments were performed at least three times with triplicate measurements at each drug concentration per experiment. The viability was quantified as described previously according to the following formula: (%) viability = (Asample − Ablank)/(Acontrol − Ablank) × 100, where A is the absorbance of the employed WST-1 formazan measured at 440 nm. The viability of the treated cells was normalized to the viability of cells treated with 0.1% DMSO (Sigma-Aldrich) as a vehicle control.

SMILES	activity at 10 µM [%]
COC1C=CC23c4cc5c(cc4CN(CC2OC(=O)c2ccccc2)C3C1)OCO5 (stereo not drawn) [Compound 1g, 11-O-Benzoylhaemanthamine]	83 ± 11
CCCC(=O)OC1CN2Cc3cc4c(cc3C13C=CC(OC)CC23)OCO4 (stereo not drawn) [Compound 1f, 11-O-Butanoylhaemanthamine]	90 ± 12
COC1C=CC23c4cc5c(cc4CN(CC2OC(=O)c2cccc(Br)c2)C3C1)OCO5 (stereo not drawn) [Compound 1i, 11-O-(3-Bromobenzoyl)haemanthamine]	133 ± 10

Tested on: MOLT-4 (acute lymphoblastic leukemia)
Experiment: WST-1 cytotoxicity assay, MOLT-4
Format: cell-based
Settings: Homo sapiens, c = 10 μM, 48 h, percent of proliferation of untreated control cells, read-out: Cell proliferation, MOLT-4
Description: as §2, §3

SMILES	viability at 10 µM [%]
COC1C=CC23c4cc5c(cc4CN(CC2OC(=O)c2ccccc2)C3C1)OCO5 (stereo not drawn) [Compound 1g, 11-O-Benzoylhaemanthamine]	110 ± 19
CCCC(=O)OC1CN2Cc3cc4c(cc3C13C=CC(OC)CC23)OCO4 (stereo not drawn) [Compound 1f, 11-O-Butanoylhaemanthamine]	101 ± 18
COC1C=CC23c4cc5c(cc4CN(CC2OC(=O)c2cccc(Br)c2)C3C1)OCO5 (stereo not drawn) [Compound 1i, 11-O-(3-Bromobenzoyl)haemanthamine]	115 ± 15

Tested on: A549 (lung carcinoma)
Experiment: WST-1 cytotoxicity assay, A549
Format: cell-based
Settings: Homo sapiens, c = 10 μM, 48 h, percent of proliferation of untreated control cells, read-out: Cell proliferation, A549
Description: as §2, §3

SMILES	activity at 10 µM [%]
COC1C=CC23c4cc5c(cc4CN(CC2OC(=O)c2ccccc2)C3C1)OCO5 (stereo not drawn) [Compound 1g, 11-O-Benzoylhaemanthamine]	98 ± 2
CCCC(=O)OC1CN2Cc3cc4c(cc3C13C=CC(OC)CC23)OCO4 (stereo not drawn) [Compound 1f, 11-O-Butanoylhaemanthamine]	106 ± 12
COC1C=CC23c4cc5c(cc4CN(CC2OC(=O)c2cccc(Br)c2)C3C1)OCO5 (stereo not drawn) [Compound 1i, 11-O-(3-Bromobenzoyl)haemanthamine]	122 ± 5

Tested on: HT-29 (colorectal adenocarcinoma)
Experiment: WST-1 cytotoxicity assay, HT-29
Format: cell-based
Settings: Homo sapiens, c = 10 μM, 48 h, percent of proliferation of untreated control cells, read-out: Cell proliferation, HT-29
Description: as §2, §3

SMILES	activity at 10 µM [%]
COC1C=CC23c4cc5c(cc4CN(CC2OC(=O)c2ccccc2)C3C1)OCO5 (stereo not drawn) [Compound 1g, 11-O-Benzoylhaemanthamine]	110 ± 17
CCCC(=O)OC1CN2Cc3cc4c(cc3C13C=CC(OC)CC23)OCO4 (stereo not drawn) [Compound 1f, 11-O-Butanoylhaemanthamine]	101 ± 3
COC1C=CC23c4cc5c(cc4CN(CC2OC(=O)c2cccc(Br)c2)C3C1)OCO5 (stereo not drawn) [Compound 1i, 11-O-(3-Bromobenzoyl)haemanthamine]	120 ± 4

Tested on: PANC-1 (pancreas epithelioid carcinoma)
Experiment: WST-1 cytotoxicity assay, PANC-1
Format: cell-based
Settings: Homo sapiens, c = 10 μM, 48 h, percent of proliferation of untreated control cells, read-out: Cell proliferation, PANC-1
Description: as §2, §3

SMILES	activity at 10 µM [%]
COC1C=CC23c4cc5c(cc4CN(CC2OC(=O)c2ccccc2)C3C1)OCO5 (stereo not drawn) [Compound 1g, 11-O-Benzoylhaemanthamine]	100 ± 10
CCCC(=O)OC1CN2Cc3cc4c(cc3C13C=CC(OC)CC23)OCO4 (stereo not drawn) [Compound 1f, 11-O-Butanoylhaemanthamine]	99 ± 6
COC1C=CC23c4cc5c(cc4CN(CC2OC(=O)c2cccc(Br)c2)C3C1)OCO5 (stereo not drawn) [Compound 1i, 11-O-(3-Bromobenzoyl)haemanthamine]	108 ± 2

Tested on: A2780 (ovarian carcinoma)
Experiment: WST-1 cytotoxicity assay, A2780
Format: cell-based
Settings: Homo sapiens, c = 10 μM, 48 h, percent of proliferation of untreated control cells, read-out: Cell proliferation, A2780
Description: as §2, §3

SMILES	activity at 10 µM [%]
COC1C=CC23c4cc5c(cc4CN(CC2OC(=O)c2ccccc2)C3C1)OCO5 (stereo not drawn) [Compound 1g, 11-O-Benzoylhaemanthamine]	120 ± 10
CCCC(=O)OC1CN2Cc3cc4c(cc3C13C=CC(OC)CC23)OCO4 (stereo not drawn) [Compound 1f, 11-O-Butanoylhaemanthamine]	104 ± 8
COC1C=CC23c4cc5c(cc4CN(CC2OC(=O)c2cccc(Br)c2)C3C1)OCO5 (stereo not drawn) [Compound 1i, 11-O-(3-Bromobenzoyl)haemanthamine]	162 ± 9

Tested on: HeLa (cervix adenocarcinoma)
Experiment: WST-1 cytotoxicity assay, HeLa
Format: cell-based
Settings: Homo sapiens, c = 10 μM, 48 h, percent of proliferation of untreated control cells, read-out: Cell proliferation, HeLa
Description: as §2, §3

SMILES	activity at 10 µM [%]
COC1C=CC23c4cc5c(cc4CN(CC2OC(=O)c2ccccc2)C3C1)OCO5 (stereo not drawn) [Compound 1g, 11-O-Benzoylhaemanthamine]	98 ± 2
CCCC(=O)OC1CN2Cc3cc4c(cc3C13C=CC(OC)CC23)OCO4 (stereo not drawn) [Compound 1f, 11-O-Butanoylhaemanthamine]	88 ± 3
COC1C=CC23c4cc5c(cc4CN(CC2OC(=O)c2cccc(Br)c2)C3C1)OCO5 (stereo not drawn) [Compound 1i, 11-O-(3-Bromobenzoyl)haemanthamine]	93 ± 5

Tested on: MCF-7 (breast adenocarcinoma)
Experiment: WST-1 cytotoxicity assay, MCF-7
Format: cell-based
Settings: Homo sapiens, MCF7; c = 10 μM, 48 h, percent of proliferation of untreated control cells; read-out: Cell proliferation, MCF-7
Description: as §2, §3

SMILES	activity at 10 µM [%]
COC1C=CC23c4cc5c(cc4CN(CC2OC(=O)c2ccccc2)C3C1)OCO5 (stereo not drawn) [Compound 1g, 11-O-Benzoylhaemanthamine]	108 ± 10
CCCC(=O)OC1CN2Cc3cc4c(cc3C13C=CC(OC)CC23)OCO4 (stereo not drawn) [Compound 1f, 11-O-Butanoylhaemanthamine]	96 ± 13
COC1C=CC23c4cc5c(cc4CN(CC2OC(=O)c2cccc(Br)c2)C3C1)OCO5 (stereo not drawn) [Compound 1i, 11-O-(3-Bromobenzoyl)haemanthamine]	105 ± 4

Tested on: SAOS-2 (osteosarcoma)
Experiment: WST-1 cytotoxicity assay, SAOS-2
Format: cell-based
Settings: Homo sapiens, c = 10 μM, 48 h, percent of proliferation of untreated control cells, read-out: Cell proliferation, SAOS-2
Description: as §2, §3

SMILES	activity at 10 µM [%]
COC1C=CC23c4cc5c(cc4CN(CC2OC(=O)c2ccccc2)C3C1)OCO5 (stereo not drawn) [Compound 1g, 11-O-Benzoylhaemanthamine]	104 ± 9
CCCC(=O)OC1CN2Cc3cc4c(cc3C13C=CC(OC)CC23)OCO4 (stereo not drawn) [Compound 1f, 11-O-Butanoylhaemanthamine]	104 ± 7
COC1C=CC23c4cc5c(cc4CN(CC2OC(=O)c2cccc(Br)c2)C3C1)OCO5 (stereo not drawn) [Compound 1i, 11-O-(3-Bromobenzoyl)haemanthamine]	97 ± 10

Tested on: MRC-5 (normal lung fibroblasts)
Experiment: WST-1 cytotoxicity assay, MRC-5
Format: cell-based
Settings: Homo sapiens, MRC5; c = 10 μM, 48 h, percent of proliferation of untreated control cells; read-out: Cell proliferation, MRC-5
Description: as §2, §3

SMILES	activity at 10 µM [%]
COC1C=CC23c4cc5c(cc4CN(CC2OC(=O)c2ccccc2)C3C1)OCO5 (stereo not drawn) [Compound 1g, 11-O-Benzoylhaemanthamine]	101 ± 5
CCCC(=O)OC1CN2Cc3cc4c(cc3C13C=CC(OC)CC23)OCO4 (stereo not drawn) [Compound 1f, 11-O-Butanoylhaemanthamine]	87 ± 14
COC1C=CC23c4cc5c(cc4CN(CC2OC(=O)c2cccc(Br)c2)C3C1)OCO5 (stereo not drawn) [Compound 1i, 11-O-(3-Bromobenzoyl)haemanthamine]	105 ± 3
